# Measurements reported in ChEMBL document CHEMBL1201862, “PubChem BioAssay data set” (2004).
# Activity calls are given as the source filed them.
# Key:
# [1] = molecular target: Eukaryotic translation initiation factor 4E (Mus musculus, UniProt P63073); assay: blockers of eIF4G binding by eIF4E – biochemical, TR-FRET, dose response (AID 855); type: functional;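 note: potency for disrupting eIF4E binding to eIF4GI seen as loss of FRET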
# [2] = molecular target: Cytochrome P450 2C19 (Homo sapiens, UniProt P33261); assay: Cytochrome panel assay with activity outcomes. Panel member name: p450-cyp2c19 Compounds with AC50 equal or less than 10 uM are considered active; type: functional; settings: read-out: AC50
# [3] = molecular target: T1, Ubiquitin-conjugating enzyme E2 N (Homo sapiens, UniProt P61088); type: functional;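 note: Dose-response confirmation in a TR-FRET assay detecting UBC13-driven polyubiquitin chain formation, inhibition measured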
# T1 sequence (P61088 whole entry): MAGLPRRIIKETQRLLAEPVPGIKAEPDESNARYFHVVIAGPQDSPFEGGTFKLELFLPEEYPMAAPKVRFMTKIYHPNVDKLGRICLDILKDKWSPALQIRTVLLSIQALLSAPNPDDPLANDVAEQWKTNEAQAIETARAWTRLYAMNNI
# [4] = molecular target: T2, Voltage-gated N-type calcium channel alpha-1B subunit/Amyloid beta A4 precursor protein-binding family A member 1 (Homo sapiens, UniProt Q00975+Q02410); type: protein assay
# [5] = molecular target: T2, Voltage-gated N-type calcium channel alpha-1B subunit/Amyloid beta A4 precursor protein-binding family A member 1; type: protein assay; remark: listed apart in the source
# [6] = molecular target: T3, Carboxy-terminal domain RNA polymerase II polypeptide A small phosphatase 1 (Homo sapiens, UniProt Q9GZU7); assay: CTDSP1 inhibitors, concentration-response, biochemical, absorbance readout, ultra-high-throughput screen actives (AID 540297); type: functional
# T3 sequence (Q9GZU7 whole entry): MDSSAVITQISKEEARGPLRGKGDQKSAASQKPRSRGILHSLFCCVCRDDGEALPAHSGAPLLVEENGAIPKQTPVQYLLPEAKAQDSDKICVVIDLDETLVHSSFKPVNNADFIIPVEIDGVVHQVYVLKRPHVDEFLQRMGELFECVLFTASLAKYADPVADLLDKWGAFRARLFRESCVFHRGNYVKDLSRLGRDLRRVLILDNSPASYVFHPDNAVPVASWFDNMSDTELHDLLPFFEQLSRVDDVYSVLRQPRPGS
# [7] = viability of PTEN-deleted HCT116 cells – cell-based, HCT116 PTEN knockout, dose response (AID 1047); type: functional;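 note: HCT116 colon tumor cells with PTEN knocked out; cells exposed to compound for 60 hours before readout; potency for loss of cell viability measured by luminescence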
# [8] = molecular target: T4, Short transient receptor potential channel 4 (Mus musculus, UniProt Q9QUQ5); assay: block of DAMGO-driven TRPC4 calcium entry – cell-based, HEK293 TRPC4/mu-opioid, Fluo-4 calcium, dose response (AID 434942); type: functional;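 note: potency of inhibitors blocking the TRPC4 calcium response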
# T4 sequence (Q9QUQ5 whole entry): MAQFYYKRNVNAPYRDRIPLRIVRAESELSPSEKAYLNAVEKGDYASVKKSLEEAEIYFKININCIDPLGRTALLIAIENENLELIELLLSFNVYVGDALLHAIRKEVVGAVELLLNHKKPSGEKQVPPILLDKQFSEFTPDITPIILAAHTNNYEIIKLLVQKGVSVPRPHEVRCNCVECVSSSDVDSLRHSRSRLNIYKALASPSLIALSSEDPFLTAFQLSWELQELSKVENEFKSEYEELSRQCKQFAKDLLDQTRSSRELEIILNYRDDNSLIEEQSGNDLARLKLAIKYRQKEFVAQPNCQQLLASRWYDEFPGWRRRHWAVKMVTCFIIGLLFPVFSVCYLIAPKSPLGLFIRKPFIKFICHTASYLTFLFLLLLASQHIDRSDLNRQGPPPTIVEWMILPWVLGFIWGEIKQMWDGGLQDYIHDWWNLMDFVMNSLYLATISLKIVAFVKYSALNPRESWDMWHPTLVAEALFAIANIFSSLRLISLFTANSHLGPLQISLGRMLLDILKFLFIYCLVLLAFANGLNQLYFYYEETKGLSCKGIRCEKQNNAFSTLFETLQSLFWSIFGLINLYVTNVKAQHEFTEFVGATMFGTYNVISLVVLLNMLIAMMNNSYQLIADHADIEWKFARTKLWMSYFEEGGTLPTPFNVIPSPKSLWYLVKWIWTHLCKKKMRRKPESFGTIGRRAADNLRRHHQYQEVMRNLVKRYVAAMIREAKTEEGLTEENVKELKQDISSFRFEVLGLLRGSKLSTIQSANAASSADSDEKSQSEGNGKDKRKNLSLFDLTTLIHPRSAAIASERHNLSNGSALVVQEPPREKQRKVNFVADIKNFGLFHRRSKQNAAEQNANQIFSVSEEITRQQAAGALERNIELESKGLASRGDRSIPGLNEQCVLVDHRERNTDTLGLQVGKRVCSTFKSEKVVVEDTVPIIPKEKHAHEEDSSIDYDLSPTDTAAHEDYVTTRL
# [9] = molecular target: Nucleotide-binding oligomerization domain-containing protein 2 (Homo sapiens, UniProt Q9HC29); assay: inhibition of NOD2-driven NF-kB reporter – cell-based, luminescence, uHTS, HEK293 (AID 1566); type: functional
# [10] = test system: HEK293; assay: cells; type: functional, cell-based; settings: Homo sapiens
# [11] = test system: HEK293; assay: cells; type: functional, cell-based; settings: Homo sapiens; remark: listed apart in the source
# [12] = test system: HEK293; assay: inhibition of NOD1-driven NF-kB reporter – cell-based, luminescence, uHTS, primary screen (AID 1578); type: functional; settings: Homo sapiens
# [13] = test system: HEK293; assay: cells; type: functional, cell-based; settings: Homo sapiens; remark: listed apart in the source
# [14] = test system: HEK293; assay: NOD2 signaling inhibitors in MDP-stimulated cells, cell-based, uHTS, luminescence (AID 2001); type: functional; settings: Homo sapiens
# [15] = molecular target: T5, RNA-binding protein pos-1 (Caenorhabditis elegans, UniProt G5EF15); assay: disruptors of C. elegans POS-1 RNA interaction – biochemical, fluorescence polarization, dose response (AID 1964);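 note: purified POS-1 fused to maltose binding protein made in E. coli; potency of compounds blocking POS-1 binding to fluorescent RNA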
# T5 sequence (G5EF15 whole entry): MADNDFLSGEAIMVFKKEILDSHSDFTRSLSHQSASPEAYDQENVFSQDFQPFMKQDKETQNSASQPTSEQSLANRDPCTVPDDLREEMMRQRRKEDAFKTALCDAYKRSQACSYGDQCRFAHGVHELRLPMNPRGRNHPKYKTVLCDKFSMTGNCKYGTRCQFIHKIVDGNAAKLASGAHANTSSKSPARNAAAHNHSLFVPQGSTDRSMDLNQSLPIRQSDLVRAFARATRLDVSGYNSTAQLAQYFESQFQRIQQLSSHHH
# [16] = molecular target: T6, Zinc finger protein mex-5 (Caenorhabditis elegans, UniProt Q9XUB2); assay: potency of MEX-5 RNA-binding blockers – biochemical, C. elegans, fluorescence polarization, dose response (AID 1960)
# T6 sequence (Q9XUB2 whole entry): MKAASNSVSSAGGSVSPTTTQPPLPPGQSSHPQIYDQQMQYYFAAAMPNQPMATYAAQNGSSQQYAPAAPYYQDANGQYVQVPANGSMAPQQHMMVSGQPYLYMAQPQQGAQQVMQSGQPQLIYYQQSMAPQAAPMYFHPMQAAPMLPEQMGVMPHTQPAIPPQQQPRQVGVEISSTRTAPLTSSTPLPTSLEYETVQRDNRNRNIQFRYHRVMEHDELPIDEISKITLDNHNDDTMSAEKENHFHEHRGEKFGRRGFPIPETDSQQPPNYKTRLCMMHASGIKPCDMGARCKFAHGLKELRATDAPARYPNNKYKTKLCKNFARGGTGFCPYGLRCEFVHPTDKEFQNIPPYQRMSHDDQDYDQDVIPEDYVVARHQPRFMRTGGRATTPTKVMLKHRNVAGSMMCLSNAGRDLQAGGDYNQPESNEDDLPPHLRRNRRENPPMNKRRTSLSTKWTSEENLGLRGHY
# Chain of Eukaryotic translation initiation factor 4E (P63073 whole entry): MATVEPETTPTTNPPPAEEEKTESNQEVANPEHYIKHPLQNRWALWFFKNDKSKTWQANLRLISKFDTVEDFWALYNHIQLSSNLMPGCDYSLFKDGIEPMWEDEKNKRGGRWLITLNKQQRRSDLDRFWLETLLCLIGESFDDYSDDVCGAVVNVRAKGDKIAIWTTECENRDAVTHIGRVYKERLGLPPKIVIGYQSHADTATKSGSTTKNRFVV
# T2 sequence (Q00975 whole entry): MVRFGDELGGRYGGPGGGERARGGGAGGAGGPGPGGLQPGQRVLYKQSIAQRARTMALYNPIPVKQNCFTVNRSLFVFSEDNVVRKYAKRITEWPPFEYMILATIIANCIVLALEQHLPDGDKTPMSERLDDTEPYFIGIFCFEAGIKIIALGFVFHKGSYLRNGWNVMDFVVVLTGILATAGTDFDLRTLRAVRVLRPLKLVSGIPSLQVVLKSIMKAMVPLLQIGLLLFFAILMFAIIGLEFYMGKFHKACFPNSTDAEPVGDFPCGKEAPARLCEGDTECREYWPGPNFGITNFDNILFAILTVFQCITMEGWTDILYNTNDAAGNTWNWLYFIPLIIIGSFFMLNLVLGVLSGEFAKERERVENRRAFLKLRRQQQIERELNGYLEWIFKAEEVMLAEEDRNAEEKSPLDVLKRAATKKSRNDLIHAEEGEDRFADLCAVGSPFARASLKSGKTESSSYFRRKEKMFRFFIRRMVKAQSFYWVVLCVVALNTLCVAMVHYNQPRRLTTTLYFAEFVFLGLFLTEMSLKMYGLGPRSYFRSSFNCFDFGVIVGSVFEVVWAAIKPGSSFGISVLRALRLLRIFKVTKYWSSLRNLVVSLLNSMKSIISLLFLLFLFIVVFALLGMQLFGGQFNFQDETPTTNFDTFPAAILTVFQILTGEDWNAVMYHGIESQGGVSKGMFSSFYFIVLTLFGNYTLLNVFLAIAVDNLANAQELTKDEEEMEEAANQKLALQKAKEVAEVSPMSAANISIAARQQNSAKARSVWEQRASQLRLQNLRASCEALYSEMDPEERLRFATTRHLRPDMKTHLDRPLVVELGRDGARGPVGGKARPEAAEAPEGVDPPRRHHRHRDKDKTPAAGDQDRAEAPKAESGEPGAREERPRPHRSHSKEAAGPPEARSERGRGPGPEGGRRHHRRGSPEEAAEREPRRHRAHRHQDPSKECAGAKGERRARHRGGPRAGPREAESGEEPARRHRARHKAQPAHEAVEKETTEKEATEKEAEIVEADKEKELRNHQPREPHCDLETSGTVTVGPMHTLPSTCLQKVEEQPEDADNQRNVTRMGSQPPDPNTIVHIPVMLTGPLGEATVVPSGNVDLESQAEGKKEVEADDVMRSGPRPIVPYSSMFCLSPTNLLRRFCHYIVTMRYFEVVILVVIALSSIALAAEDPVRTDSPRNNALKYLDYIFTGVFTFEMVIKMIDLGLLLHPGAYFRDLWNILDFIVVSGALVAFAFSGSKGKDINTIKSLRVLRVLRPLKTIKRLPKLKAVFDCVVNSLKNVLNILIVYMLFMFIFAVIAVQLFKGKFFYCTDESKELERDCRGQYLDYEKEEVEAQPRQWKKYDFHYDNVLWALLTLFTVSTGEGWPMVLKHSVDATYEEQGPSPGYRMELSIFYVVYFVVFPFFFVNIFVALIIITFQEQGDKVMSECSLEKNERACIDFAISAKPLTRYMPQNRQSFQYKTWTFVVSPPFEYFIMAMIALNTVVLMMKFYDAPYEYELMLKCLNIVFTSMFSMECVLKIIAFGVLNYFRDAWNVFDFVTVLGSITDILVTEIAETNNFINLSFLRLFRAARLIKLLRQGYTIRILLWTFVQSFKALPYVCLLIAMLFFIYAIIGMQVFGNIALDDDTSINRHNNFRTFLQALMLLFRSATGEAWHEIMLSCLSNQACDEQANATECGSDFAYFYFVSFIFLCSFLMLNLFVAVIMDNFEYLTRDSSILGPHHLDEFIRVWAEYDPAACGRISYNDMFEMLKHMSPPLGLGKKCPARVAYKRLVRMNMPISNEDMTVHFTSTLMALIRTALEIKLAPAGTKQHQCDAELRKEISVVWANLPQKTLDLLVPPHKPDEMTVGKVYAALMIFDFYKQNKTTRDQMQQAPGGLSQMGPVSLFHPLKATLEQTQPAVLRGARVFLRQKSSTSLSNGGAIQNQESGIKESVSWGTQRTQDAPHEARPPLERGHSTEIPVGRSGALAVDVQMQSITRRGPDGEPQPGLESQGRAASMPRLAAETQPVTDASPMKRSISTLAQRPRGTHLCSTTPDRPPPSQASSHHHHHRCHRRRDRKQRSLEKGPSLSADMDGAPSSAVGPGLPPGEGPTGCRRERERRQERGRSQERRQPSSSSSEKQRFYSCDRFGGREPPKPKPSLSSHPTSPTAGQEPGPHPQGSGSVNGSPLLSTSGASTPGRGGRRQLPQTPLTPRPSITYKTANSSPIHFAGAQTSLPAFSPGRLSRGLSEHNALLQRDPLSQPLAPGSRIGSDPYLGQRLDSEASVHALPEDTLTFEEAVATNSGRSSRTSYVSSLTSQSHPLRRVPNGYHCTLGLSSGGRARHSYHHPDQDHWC
# T2 sequence (Q02410 whole entry): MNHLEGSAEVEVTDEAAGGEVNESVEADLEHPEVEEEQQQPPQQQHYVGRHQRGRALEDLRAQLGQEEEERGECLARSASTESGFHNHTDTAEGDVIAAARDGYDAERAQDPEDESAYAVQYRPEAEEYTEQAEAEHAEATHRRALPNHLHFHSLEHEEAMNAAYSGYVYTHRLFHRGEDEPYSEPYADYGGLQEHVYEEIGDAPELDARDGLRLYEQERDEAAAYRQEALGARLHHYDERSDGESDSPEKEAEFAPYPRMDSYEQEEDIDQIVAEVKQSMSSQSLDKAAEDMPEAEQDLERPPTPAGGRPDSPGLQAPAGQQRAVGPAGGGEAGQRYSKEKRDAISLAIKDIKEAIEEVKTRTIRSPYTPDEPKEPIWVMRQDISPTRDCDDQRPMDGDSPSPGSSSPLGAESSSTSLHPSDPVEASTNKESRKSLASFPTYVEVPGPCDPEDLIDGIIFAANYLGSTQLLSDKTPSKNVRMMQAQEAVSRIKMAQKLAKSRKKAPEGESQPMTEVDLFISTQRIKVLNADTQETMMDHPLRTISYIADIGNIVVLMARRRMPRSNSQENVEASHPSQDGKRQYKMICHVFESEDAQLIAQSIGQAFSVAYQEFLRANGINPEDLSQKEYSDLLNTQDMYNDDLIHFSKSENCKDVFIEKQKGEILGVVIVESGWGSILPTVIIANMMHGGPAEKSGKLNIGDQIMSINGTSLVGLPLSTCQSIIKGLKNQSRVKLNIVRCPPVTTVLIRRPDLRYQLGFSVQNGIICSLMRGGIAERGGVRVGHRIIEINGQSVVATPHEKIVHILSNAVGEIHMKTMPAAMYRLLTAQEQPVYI
# Chain of Nucleotide-binding oligomerization domain-containing protein 2 (Q9HC29 whole entry, the tested form may be a part): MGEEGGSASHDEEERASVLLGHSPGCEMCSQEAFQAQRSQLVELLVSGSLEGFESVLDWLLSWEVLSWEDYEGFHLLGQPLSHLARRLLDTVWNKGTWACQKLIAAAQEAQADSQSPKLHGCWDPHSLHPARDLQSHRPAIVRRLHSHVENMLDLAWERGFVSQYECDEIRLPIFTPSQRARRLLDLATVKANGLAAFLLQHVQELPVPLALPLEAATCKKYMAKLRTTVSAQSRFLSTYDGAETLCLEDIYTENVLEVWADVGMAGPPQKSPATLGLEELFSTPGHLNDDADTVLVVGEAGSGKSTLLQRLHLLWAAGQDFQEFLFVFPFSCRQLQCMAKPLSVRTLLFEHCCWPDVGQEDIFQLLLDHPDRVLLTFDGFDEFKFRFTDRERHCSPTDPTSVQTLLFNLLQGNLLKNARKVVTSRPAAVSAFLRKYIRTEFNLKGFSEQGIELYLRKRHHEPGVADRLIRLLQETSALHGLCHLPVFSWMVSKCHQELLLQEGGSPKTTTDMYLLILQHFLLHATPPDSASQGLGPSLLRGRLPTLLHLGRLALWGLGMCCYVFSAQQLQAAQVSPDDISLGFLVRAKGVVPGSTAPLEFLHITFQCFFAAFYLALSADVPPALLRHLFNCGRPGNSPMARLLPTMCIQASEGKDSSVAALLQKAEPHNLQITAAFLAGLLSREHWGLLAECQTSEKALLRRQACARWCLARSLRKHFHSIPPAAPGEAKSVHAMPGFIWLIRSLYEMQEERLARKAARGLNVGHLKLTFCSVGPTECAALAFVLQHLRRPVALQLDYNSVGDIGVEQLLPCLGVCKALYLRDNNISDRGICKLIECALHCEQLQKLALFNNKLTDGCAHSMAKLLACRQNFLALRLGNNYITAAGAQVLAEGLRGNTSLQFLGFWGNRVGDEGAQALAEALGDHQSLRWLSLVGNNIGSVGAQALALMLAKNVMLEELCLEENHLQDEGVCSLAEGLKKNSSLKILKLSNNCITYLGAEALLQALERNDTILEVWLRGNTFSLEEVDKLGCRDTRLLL
# Chain of Cytochrome P450 2C19 (P33261 whole entry): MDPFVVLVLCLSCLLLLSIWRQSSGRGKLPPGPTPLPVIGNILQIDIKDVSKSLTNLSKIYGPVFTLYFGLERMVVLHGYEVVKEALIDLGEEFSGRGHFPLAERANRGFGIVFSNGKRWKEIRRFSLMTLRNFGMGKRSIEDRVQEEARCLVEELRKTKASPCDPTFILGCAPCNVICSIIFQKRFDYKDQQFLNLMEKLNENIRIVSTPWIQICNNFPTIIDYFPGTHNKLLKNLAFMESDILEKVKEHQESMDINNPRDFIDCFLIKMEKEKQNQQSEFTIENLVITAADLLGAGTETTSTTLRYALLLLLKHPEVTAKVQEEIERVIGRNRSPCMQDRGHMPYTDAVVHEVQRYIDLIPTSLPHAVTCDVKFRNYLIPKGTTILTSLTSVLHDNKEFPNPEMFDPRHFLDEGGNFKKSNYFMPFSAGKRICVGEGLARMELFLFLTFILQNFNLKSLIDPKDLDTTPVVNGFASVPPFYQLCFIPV
compound,measurement,setting,value
COc1ccc(NC2=NCC(=O)N2Cc2cccs2)cc1,IC50,[1],> 64 µM (inactive)
same,AC50,[2],8.91 µM (inconclusive)
O=C(CCCCCN1C(=O)c2cccc3cccc(c23)C1=O)NCCO,IC50,[3],> 20 µM (inactive)
COC(=O)c1ccccc1NC(=O)c1cc(-c2ccco2)on1,IC50,[4],> 50 µM (inactive)
same,IC50,[5],13.7 µM (active)
CC(C(=O)N1CCCCC1)N1CCN(S(=O)(=O)c2ccc(Cl)cc2)CC1 (stereo not given),IC50,[6],54.9 µM (active)
O=C(O)c1cc(-c2ccccc2)n(-c2ccccc2C(=O)O)n1,IC50,[1],> 64 µM (inactive)
Cc1ccc(Cn2nc(C)c(NC(=O)CSc3nc4c(c(C(F)(F)F)n3)CCc3ccccc3-4)c2C)cc1,IC50,[1],> 64 µM (inactive)
same,EC50,[7],21 µM (active)
O=C(COC(=O)c1cccc([N+](=O)[O-])c1)c1ccc2c(c1)OCO2,EC50,[8],0.0027 µM (active)
O=C(COC(=O)c1cc(-c2ccccc2Cl)nc2ccccc12)Nc1ncc(C(F)(F)F)cc1Cl,IC50,[6],39 µM (active)
COc1ccccc1N1CCN(c2ncnc3sc(C)c(-c4ccccc4)c23)CC1,EC50,[9],11.5 µM (active)
same,IC50,[10],17.2 µM (active)
same,IC50,[11],> 20 µM (inactive)
same,EC50,[12],5.48 µM (active)
same,IC50,[13],6.68 µM (active)
same,IC50,[14],6.98 µM (active)
Cc1ccc(/N=C/c2nc(-c3ccc(C)cc3)oc2O)cc1,IC50,[1],50 µM (inactive)
same,EC50,[15],32.6 µM (active)
same,EC50,[16],68.7 µM (active)
